Where “and” joins values, the source holds several entries; their conditions need not be identical. Equal values may be shown once.

The subject of the assay is 475296-252-R-J1-PDC spheroid viability. Kind of assay: Anticancer human tumor 475296-252-R-J1-PDC patient-derived rectal carcinoma cell line growth inhibition [PI3K]. To be noted: spheroids with HUVEC and MSC; for viability, T/C: stronger effect = lower value. From the text:
Combinatorial screen of targeted agents with the PI3K inhibitors inavolisib, alpelisib, duvelisib, and copanlisib in multi-cell type tumor spheroids
A high-throughput screen of multi-cell type tumor spheroids was designed to identify active combinations of targeted small molecules and PI3K pathway inhibitors. Complex spheroids include a stromal component modeled by human endothelial cells (HUVEC) and fibroblasts modeled by human mesenchymal stem cells (MSCs). The concentration ranges selected for each drug and investigational agent were based upon clinically achievable concentrations if the clinical Cmax of the agent was known.
Compounds. The drugs and investigational agents: inavolisib (NSC800729), alpelisib (NSC765974), duvelisib (NSC772469), copanlisib (NSC816437), ipatasertib (NSC767898), afuresertib (NSC778305), talazoparib (NSC767125), sapanisertib (NSC764658), selumetinib (NSC741078), tovorafenib (DAY101, NSC766906), vemurafenib (NSC761431), ravoxertinib (NSC781343), sotorasib (NSC818433), MRTX1133 (NSC 836407), abemaciclib (NSC 768073), palbociclib (NSC758247), venetoclax (NSC 766270), SY5609 (NSC837396), enzalutamide (NSC755605), and darolutamide (NSC825331), were obtained from the National Cancer Institute (NCI) Developmental Therapeutics Program Chemical Repository. The FDA-approved anticancer drug set is available from the NCI Developmental Therapeutics Program. […] The stock solutions were prepared in dimethyl sulfoxide (DMSO, Sigma-Aldrich, St. Louis, MO, cat. D2650) at 800-fold the tested concentration and stored at -70 degrees C prior to their use. All drugs and investigational agents were tested over a range starting from a high concentration at or near the clinical Cmax and decreasing in half-log increments. If the clinical Cmax for an agent had not been determined, the highest concentration tested was 10 microM.
Cell Culture. All cells were maintained in an incubator at 37 degrees C and 5% CO2 with 95% humidity. The PDC lines were cultured according to standard operating procedures established by the NCI PDMR (https://pdmr.cancer.gov/sops/default.htm). All PDCs were thawed and cultured in Matrigel-coated flasks prepared with a working solution of 1X Ham's F-12 nutrient mix, without supplementation (Invitrogen, Waltham, MA, cat. 11765054), 100 U/mL penicillin-streptomycin (Invitrogen, cat. 15140122), and 2.5% Matrigel (Corning Inc., Corning, NY, cat. 354248) for the first three passages. The 354836-022-R-J1-PDC, 475296-252-R-J1-PDC, and 997726-040-R-J2-PDC lines were cultured in 6A media, which includes advanced DMEM/F-12 (Thermo Fisher Scientific, cat. 12634028), 10 mM HEPES (Thermo Fisher Scientific, cat. 15630080), 1X GlutaMAX supplement (Thermo Fisher Scientific, cat. 35050061), 0.1 mg/mL primocin (InvivoGen, San Diego, CA, cat. ant-pm-2), 10% defined fetal bovine serum, heat inactivated (HyClone Laboratories Inc., Logan, UT, cat. SH30070.03HI), 50% L-WRN conditioned media (ATCC, cat. CRL-3276), 1.25 mM N-Acetyl-L-cysteine (Sigma-Aldrich, cat. A9165), 10 mM nicotinamide (Sigma-Aldrich, cat. N0636), 1X B-27 supplement (Thermo Fisher Scientific, cat. 17504044), 1X N-2 supplement (Thermo Fisher Scientific, cat. 17502048), and 10 microM Y-27632 dihydrochloride (Tocris Bioscience, Bristol, United Kingdom, cat. 1254). The 624824-186-R-J2-PDC line was cultured in 6C/Colon 1B media, which includes all 6A media components plus 50 ng/mL human EGF recombinant protein (Thermo Fisher Scientific, cat. PHG0311). […]
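Note: spheroids exposed to agents for seven days before readout.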

Consider `CC1(C)CCC(Nc2ncc(C(F)(F)F)c(-c3c[nH]c4c(P(C)(C)=O)c(C#N)ccc34)n2)CN1` (stereo not given), for which the viability, T/C is, setting by setting: (compound 0.0316 µM) 90.7% [middle of 4 runs]; (compound 0.1 µM) 98.6% [middle of 4 runs]; (compound 0.316 µM) 109% [middle of 4 runs]; (compound 1 µM) 129% [middle of 4 runs]; (compound 3.16 µM) 148% (2×) and 176% and 175%. In addition, for the setting “curve of compound”, the IC50 is above 10000 nM.

With `CCCS(=O)(=O)Nc1ccc(F)c(C(=O)c2c[nH]c3ncc(-c4ccc(Cl)cc4)cc23)c1F`, the viability, T/C (compound 0.0316 µM) is 101% [middle of 4 runs]; the viability, T/C (compound 0.1 µM) is 95% [middle of 4 runs]; the viability, T/C (compound 0.316 µM) is 96.8% [middle of 4 runs]; the viability, T/C (compound 1 µM) is 90.3% [middle of 4 runs]; the viability, T/C (compound 3.16 µM) is 98.2% [middle of 4 runs]; the viability, T/C (compound 10 µM) is 95.3% [middle of 4 runs]. For the setting “curve of compound”, the half-inhibitory concentration (IC50) is above 10000 nM.

As for `Cn1nccc1Nc1nccc(-c2ccn(C(CO)c3ccc(Cl)c(F)c3)c(=O)c2)n1` (stereo not given) + COc1c(OCCCN2CCOCC2)ccc2c3n(c(=NC(=O)c4cnc(N)nc4)nc12)CCN3, the 50% inhibitory concentration (IC50) (curve of first compound, second compound 0.00316 µM) is above 10000 nM; the half-inhibitory concentration (IC50) (curve of first compound, second compound 0.01 µM) is above 10000 nM; the IC50 (curve of first compound, second compound 0.0316 µM) stood at 2780 nM; the IC50 (curve of first compound, second compound 0.1 µM) amounted to 1020 nM; the half-maximal inhibitory concentration (IC50) (curve of first compound, second compound 0.316 µM) came to 612 nM; the IC50 (curve of first compound, second compound 1 µM) was 129 nM. The viability, T/C (second compound 0.00316 µM, first compound 0.0316 µM) is 88.1%; the viability, T/C (second compound 0.00316 µM, first compound 0.1 µM) was 107%; the viability, T/C (second compound 0.00316 µM, first compound 0.316 µM) is 95.3%; the viability, T/C (second compound 0.00316 µM, first compound 1 µM) is 94.8%; the viability, T/C (second compound 0.00316 µM, first compound 3.16 µM) was 77.2%; the viability, T/C (second compound 0.00316 µM, first compound 10 µM) is 58.3%. Besides, the viability, T/C is 88.5% (second compound 0.01 µM, first compound 0.0316 µM); 88.2% (second compound 0.01 µM, first compound 0.1 µM); 88.4% (second compound 0.01 µM, first compound 0.316 µM); 85.7% (second compound 0.01 µM, first compound 1 µM); 70.6% (second compound 0.01 µM, first compound 3.16 µM); 50.5% (second compound 0.01 µM, first compound 10 µM). Besides, the viability, T/C reads like this: (second compound 0.0316 µM, first compound 0.0316 µM) 92.5%; (second compound 0.0316 µM, first compound 0.1 µM) 89.7%; (second compound 0.0316 µM, first compound 0.316 µM) 80.2%; (second compound 0.0316 µM, first compound 1 µM) 84.6%; (second compound 0.0316 µM, first compound 3.16 µM) 45.6%; (second compound 0.0316 µM, first compound 10 µM) 42.7%. The viability, T/C reads like this: (second compound 0.1 µM, first compound 0.0316 µM) 78%; (second compound 0.1 µM, first compound 0.1 µM) 81%; (second compound 0.1 µM, first compound 0.316 µM) 64.3%; (second compound 0.1 µM, first compound 1 µM) 53.6%; (second compound 0.1 µM, first compound 3.16 µM) 24%; (second compound 0.1 µM, first compound 10 µM) 8.76%. Moreover, the viability, T/C runs as follows: (second compound 0.316 µM, first compound 0.0316 µM) 74.7%; (second compound 0.316 µM, first compound 0.1 µM) 78.5%; (second compound 0.316 µM, first compound 0.316 µM) 58.8%; (second compound 0.316 µM, first compound 1 µM) 43.8%; (second compound 0.316 µM, first compound 3.16 µM) 7.08%; (second compound 0.316 µM, first compound 10 µM) 3.11%. For the same molecule, the viability, T/C is 54.9% (second compound 1 µM, first compound 0.0316 µM); 51.5% (second compound 1 µM, first compound 0.1 µM); 42.6% (second compound 1 µM, first compound 0.316 µM); 29.2% (second compound 1 µM, first compound 1 µM); 10% (second compound 1 µM, first compound 3.16 µM); 5.49% (second compound 1 µM, first compound 10 µM).

Source of the values: PubChem BioAssay AID1963980 (Molecular Pharmacology Branch, DTP, NCI, 2024).
